According to paper PMC6153936, “Bisarylureas Based on 1H-Pyrazolo[3,4-d]pyrimidine Scaffold as Novel Pan-RAF Inhibitors with Potent Anti-Proliferative Activities: Structure-Based Design, Synthesis, Biological Evaluation and Molecular Modelling Studies” (Molecules : A Journal of Synthetic Chemistry and Natural …, 2017):
One block for each molecule: values may come before it.

Assays:
[1] = biological target: T1, BRAF^V600E (Homo sapiens, UniProt P15056, V600E); experiment: BRAF^V600E kinase inhibition, Z'-LYTE; format: biochemical; conditions: for inhibition at 0.1 µM: 100 nM; for IC50: ten concentrations 1000 to 0.0508 nM, two independent experiments
T1 construct: purchased Life Technologies
T1 sequence (P15056 whole entry V600E): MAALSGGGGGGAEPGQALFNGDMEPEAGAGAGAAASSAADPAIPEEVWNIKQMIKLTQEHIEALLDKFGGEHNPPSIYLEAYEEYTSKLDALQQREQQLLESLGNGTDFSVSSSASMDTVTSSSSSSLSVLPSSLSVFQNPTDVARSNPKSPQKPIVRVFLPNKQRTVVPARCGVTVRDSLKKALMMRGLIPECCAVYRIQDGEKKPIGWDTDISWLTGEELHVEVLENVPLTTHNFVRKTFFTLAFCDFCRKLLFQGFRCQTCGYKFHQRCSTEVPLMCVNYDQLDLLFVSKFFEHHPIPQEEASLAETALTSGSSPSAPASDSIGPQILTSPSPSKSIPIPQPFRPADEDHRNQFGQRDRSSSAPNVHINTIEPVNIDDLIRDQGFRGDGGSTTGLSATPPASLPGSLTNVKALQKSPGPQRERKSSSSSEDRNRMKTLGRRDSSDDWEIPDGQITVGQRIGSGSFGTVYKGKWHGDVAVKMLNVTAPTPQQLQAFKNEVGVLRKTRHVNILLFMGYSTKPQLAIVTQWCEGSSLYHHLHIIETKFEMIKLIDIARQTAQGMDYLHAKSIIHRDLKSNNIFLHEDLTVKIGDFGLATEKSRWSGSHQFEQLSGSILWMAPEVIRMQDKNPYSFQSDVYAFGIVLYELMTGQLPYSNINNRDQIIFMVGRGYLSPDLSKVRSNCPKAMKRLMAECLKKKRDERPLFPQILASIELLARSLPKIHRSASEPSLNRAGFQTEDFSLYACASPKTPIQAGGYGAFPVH
Method: The experiments were performed according to the instructions of the manufacturer, and single point concentration testing with two independent data points (n = 2). […] The IC50 values were calculated from the inhibition curves from two separate experiments.

[2] = tested on: A375; experiment: MTT anti-proliferative assay, A375; format: cell-based; conditions: Homo sapiens, A-375, 48 h
Method: (§2) All cell lines were purchased from Cell Bank of China Science Academy (Shanghai, China). All chemicals and solvents were purchased from Sigma-Aldrich (St. Louis, MO, USA) or Gibco (Gibco BRL, Grand Island, NY, USA). The PC-3 and A375 cell lines was maintained in Dulbecco's modified eagle (DEME) medium supplement with 10% fetal bovine serum (FBS) and 1% penicillin–streptomycin. The others were cultured in Roswell Park Memorial Institute (RPMI) 1640 medium supplement with 10% fetal bovine serum (FBS) and 1% penicillin–streptomycin. Approximately 5 × 10^3 cells, suspended in medium, were plated into each well of a 96-well plate and grown at 37 °C in a humidified atmosphere with 5% CO2 for 24 h. The following day, various concentrations of tested compounds were added to the culture medium and incubated for 48 h. Fresh MTT was added to each well at the terminal concentration of 5 mg/mL in phosphate buffered saline (PBS), and incubated with cells at 37 °C for 4 h. The formazan crystals in each well were dissolved in 150 μL DMSO, and the absorbency at 570 nm was measured with an enzyme-linked immunosorbent assay plate reader. All of the compounds were tested three times in each of the cell lines.

[3] = tested on: HT-29; experiment: MTT anti-proliferative assay, HT-29; format: cell-based; conditions: Homo sapiens, 48 h
Method: as §2

[4] = tested on: PC-3; experiment: MTT anti-proliferative assay, PC-3; format: cell-based, human; conditions: Homo sapiens, PC-3; MTT, 48 h
Method: as §2

[5] = tested on: A549; experiment: MTT anti-proliferative assay, A549; format: cell-based, human; conditions: Homo sapiens, A549; MTT, 48 h
Method: as §2

[6] = in vitro; conditions: dog
Method: as §2

[7] = MTT cytotoxic assay, normal cell line MDCK; conditions: dog, MDCK cells (normal cell line)
Method: as §2

[8] = biological target: BRAF (wt) (Homo sapiens, UniProt P15056); experiment: Kinase selectivity profile; format: biochemical
BRAF (wt), sequence (P15056 whole entry): as the sequence (P15056 whole entry V600E) above, with E600V counted along it

[9] = biological target: RAF1 (CRAF) (Homo sapiens, UniProt P04049); experiment: Kinase selectivity profile; format: biochemical
RAF1 (CRAF), sequence (P04049 342-648 limits assumed): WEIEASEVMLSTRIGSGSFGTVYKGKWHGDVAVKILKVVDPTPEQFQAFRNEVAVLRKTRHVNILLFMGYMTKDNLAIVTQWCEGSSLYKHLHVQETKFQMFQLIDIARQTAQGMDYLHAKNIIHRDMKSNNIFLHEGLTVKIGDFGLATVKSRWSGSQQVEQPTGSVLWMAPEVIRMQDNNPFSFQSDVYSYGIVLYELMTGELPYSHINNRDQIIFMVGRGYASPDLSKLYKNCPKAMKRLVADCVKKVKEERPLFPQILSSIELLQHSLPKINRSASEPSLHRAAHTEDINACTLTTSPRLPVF

[10] = biological target: ABL2 (Arg) (Homo sapiens, UniProt P42684); experiment: Kinase selectivity profile; format: biochemical
ABL2 (Arg), sequence (P42684 whole entry): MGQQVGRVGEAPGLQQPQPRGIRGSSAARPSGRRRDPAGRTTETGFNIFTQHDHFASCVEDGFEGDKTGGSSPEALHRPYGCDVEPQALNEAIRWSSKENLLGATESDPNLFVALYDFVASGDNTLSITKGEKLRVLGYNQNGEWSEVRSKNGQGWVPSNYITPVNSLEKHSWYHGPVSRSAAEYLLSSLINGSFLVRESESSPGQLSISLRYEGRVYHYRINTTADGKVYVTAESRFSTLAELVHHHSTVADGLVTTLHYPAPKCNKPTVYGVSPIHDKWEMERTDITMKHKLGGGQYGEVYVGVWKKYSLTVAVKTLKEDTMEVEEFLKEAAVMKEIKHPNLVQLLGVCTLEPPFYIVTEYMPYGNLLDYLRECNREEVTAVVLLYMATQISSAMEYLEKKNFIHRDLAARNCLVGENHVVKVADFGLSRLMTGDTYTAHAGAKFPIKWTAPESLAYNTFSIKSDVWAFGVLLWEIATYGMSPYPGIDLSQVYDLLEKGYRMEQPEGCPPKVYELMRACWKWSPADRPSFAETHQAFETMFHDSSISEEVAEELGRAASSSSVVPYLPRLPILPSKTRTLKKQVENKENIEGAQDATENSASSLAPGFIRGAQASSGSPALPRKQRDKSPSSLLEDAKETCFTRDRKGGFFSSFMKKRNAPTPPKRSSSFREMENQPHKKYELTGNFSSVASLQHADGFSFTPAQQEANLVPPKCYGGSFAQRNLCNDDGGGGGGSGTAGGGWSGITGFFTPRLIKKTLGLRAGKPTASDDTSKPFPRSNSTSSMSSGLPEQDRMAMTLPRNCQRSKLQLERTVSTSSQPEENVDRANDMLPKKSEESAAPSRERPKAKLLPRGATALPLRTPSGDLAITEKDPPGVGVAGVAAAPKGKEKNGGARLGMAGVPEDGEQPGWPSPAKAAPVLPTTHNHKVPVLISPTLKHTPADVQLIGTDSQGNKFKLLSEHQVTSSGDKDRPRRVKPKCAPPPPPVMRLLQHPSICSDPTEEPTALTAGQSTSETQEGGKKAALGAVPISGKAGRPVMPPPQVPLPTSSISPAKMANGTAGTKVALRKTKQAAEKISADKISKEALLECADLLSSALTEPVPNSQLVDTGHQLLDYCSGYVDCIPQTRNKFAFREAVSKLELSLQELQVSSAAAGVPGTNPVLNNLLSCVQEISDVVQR

[11] = biological target: EGFR (ErbB1) (Homo sapiens, UniProt P00533); experiment: Kinase selectivity profile; format: biochemical
[12] = biological target: ErbB2 (HER2) (Homo sapiens, UniProt P04626); experiment: Kinase selectivity profile; format: biochemical
ErbB2 (HER2), sequence (P04626 23-1255): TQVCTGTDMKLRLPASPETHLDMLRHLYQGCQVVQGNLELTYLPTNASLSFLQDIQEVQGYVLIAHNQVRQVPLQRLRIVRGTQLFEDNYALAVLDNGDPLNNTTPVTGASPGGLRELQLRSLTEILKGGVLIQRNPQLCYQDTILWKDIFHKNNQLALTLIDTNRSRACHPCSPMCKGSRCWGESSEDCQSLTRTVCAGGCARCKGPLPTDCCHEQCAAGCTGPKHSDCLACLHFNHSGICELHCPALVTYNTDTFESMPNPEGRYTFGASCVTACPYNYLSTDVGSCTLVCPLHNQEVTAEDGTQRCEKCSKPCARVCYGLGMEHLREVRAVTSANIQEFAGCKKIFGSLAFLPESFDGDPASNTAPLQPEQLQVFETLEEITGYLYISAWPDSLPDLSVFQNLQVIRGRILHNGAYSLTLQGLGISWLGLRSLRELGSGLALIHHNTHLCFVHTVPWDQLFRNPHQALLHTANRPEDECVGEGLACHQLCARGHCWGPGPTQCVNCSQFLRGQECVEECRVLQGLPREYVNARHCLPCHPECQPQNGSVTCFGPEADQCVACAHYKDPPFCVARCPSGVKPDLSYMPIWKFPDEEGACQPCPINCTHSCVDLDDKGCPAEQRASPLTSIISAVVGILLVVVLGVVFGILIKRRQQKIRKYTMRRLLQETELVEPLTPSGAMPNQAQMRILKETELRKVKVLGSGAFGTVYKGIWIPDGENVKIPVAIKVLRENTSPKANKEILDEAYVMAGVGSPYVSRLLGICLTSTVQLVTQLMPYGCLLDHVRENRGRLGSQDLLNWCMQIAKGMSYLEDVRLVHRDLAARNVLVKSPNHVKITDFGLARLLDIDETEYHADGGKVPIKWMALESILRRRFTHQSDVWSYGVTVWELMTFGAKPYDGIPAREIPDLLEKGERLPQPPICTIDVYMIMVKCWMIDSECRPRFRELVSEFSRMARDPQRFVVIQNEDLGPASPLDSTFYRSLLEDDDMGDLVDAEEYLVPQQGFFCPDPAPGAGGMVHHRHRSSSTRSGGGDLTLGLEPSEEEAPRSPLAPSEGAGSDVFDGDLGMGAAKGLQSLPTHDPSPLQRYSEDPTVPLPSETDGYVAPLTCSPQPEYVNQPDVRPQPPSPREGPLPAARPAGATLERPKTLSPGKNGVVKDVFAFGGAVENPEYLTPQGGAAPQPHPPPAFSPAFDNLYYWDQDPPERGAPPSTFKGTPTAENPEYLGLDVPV

[13] = biological target: ErbB4 (HER4) (Homo sapiens, UniProt Q15303); experiment: Kinase selectivity profile; format: biochemical
[14] = biological target: PTK2 (FAK) (Homo sapiens, UniProt Q05397); experiment: Kinase selectivity profile; format: biochemical
[15] = biological target: FLT1 (VEGFR1) (Homo sapiens, UniProt P17948); experiment: Kinase selectivity profile; format: biochemical
[16] = biological target: MET (c-Met) (Homo sapiens, UniProt P08581); experiment: Kinase selectivity profile; format: biochemical
[17] = biological target: VEGFR-2 (Homo sapiens, UniProt P35968); experiment: Kinase selectivity profile; format: biochemical
[18] = biological target: EPHA2 (Homo sapiens, UniProt P29317); experiment: Kinase selectivity profile; format: biochemical
[19] = biological target: FLT4 (VEGFR3) (Homo sapiens, UniProt P35916); experiment: Kinase selectivity profile; format: biochemical
[20] = biological target: ABL1 (Homo sapiens, UniProt P00519); experiment: Kinase selectivity profile; format: biochemical
[21] = biological target: ALK (Homo sapiens, UniProt Q9UM73); experiment: Kinase selectivity profile; format: biochemical
[22] = biological target: AURKA (Aurora A) (Homo sapiens, UniProt O14965); experiment: Kinase selectivity profile; format: biochemical
[23] = biological target: AURKB (Aurora B) (Homo sapiens, UniProt Q96GD4); experiment: Kinase selectivity profile; format: biochemical
AURKB (Aurora B), sequence (Q96GD4 whole entry): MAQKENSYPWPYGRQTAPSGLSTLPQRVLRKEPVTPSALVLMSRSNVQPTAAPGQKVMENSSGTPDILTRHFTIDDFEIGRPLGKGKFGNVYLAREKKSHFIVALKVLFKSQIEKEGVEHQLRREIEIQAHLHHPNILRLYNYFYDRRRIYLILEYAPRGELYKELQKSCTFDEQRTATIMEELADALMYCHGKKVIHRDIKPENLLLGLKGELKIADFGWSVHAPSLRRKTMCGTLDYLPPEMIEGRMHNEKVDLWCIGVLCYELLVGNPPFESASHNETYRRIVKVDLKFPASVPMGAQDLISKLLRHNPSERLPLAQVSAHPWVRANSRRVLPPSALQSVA

[24] = biological target: LCK (Homo sapiens, UniProt P06239); experiment: Kinase selectivity profile; format: biochemical
[25] = biological target: LTK (TYK1) (Homo sapiens, UniProt P29376); experiment: Kinase selectivity profile; format: biochemical
LTK (TYK1), sequence (P29376 17-864): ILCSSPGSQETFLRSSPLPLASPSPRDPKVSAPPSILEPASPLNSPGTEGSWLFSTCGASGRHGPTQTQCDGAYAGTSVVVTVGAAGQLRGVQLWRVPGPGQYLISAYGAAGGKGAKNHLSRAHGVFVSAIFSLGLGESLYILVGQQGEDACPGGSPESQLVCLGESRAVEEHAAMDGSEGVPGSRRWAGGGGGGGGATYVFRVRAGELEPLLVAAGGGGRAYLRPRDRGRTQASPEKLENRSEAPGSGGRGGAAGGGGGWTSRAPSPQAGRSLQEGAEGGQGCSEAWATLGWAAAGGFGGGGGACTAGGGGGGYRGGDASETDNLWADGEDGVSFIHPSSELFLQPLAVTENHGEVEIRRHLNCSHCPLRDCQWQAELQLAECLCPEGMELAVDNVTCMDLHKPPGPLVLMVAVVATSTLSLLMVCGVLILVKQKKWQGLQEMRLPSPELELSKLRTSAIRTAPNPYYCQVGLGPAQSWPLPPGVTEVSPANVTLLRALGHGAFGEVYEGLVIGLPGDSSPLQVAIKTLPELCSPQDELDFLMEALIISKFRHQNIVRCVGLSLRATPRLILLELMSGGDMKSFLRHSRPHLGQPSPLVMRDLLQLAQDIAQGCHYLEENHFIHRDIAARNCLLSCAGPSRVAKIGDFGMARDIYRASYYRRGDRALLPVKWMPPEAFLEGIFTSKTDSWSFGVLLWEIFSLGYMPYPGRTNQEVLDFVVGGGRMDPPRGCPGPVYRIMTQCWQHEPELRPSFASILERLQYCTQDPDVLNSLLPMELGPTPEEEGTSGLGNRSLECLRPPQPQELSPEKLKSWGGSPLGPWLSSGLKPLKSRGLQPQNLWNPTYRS

[26] = biological target: MST1R (RON) (Homo sapiens, UniProt Q04912); experiment: Kinase selectivity profile; format: biochemical
[27] = tested on: A375 cell line; experiment: Flow cytometric analysis of cell cycle distribution; format: cell-based, human; conditions: for G0/G1 (%) / G2/M (%) / S (%) / Sub-G1 (%): 48 h
Method: The effect of compound 1v on cell cycle phase distribution of human malignant melanoma A375 was assessed using flow cytometry. When the cells grew to about 70% confluence in 6-well microplates, they were treated with compound 1v at given concentrations (6.11 μmol/L, 12.21 μmol/L, 24.42 μmol/L). After 48 h, cells were harvested by trypsinization, washed with PBS, and fixed in 70% ice cold (4 °C) ethanol overnight. They were then washed with PBS, incubated with Ribonuclease (RNase) ([…] final concentration) at 37 °C for 30 min, stained with propidium iodide ([…] final concentration), and analyzed by flow cytometry (BD FACS Canto II, BD Biosciences, San Jose, CA, USA).

[28] = tested on: phosphor-MEK protein in A375 cell line; experiment: Western blot of phosphor-MEK, A375; format: cell-based, human; conditions: A375, 48 h treatment
Method: (§1) Total cells were harvested after treatment, washed twice with cold PBS, and lysed with RIPA lysis buffer (KeyGEN BioTECH, Nanjing, China) including 1% cocktail (Selleck Chemicals, Houston, TX, USA). Lysates were centrifuged at 12,000× g at 4 °C for 15 min, and the supernatant was collected. Total protein concentration was quantified using the bicinchoninic acid (BCA; Beyotime Institute of Biotechnology, Nanjing, China) protein assay kit (Sigma Chemical Co., St. Louis, MO, USA). The proteins were separated electrophoretically using 10% sodium dodecyl sulfate polyacrylamide gel electrophoresis (SDS-PAGE) and then the gel was transferred onto polyvinylidene fluoride (PVDF; Millipore, Billerica, MA, USA) membranes. […] The immunobands were detected with an enhanced chemiluminescence kit (Beyotime Institute of Biotechnology, Nanjing, China).

[29] = tested on: phosphor-MEK protein in HT-29 cell line; experiment: Western blot of phosphor-MEK, HT-29; format: cell-based, human; conditions: HT-29, 48 h treatment
Method: as §1

[30] = average of two independent experiments
[31] = 1000 nM, average of two independent experiments

SMILES: O=C(Nc1ccccc1)Nc1ccc(Oc2ncnc3[nH]ncc23)cc1 [Compound 1e, 1-(4-((1H-Pyrazolo[3,4-d]pyrimidin-4-yl)oxy)phenyl)-3-phenylurea]
BRAF^V600E (%) inhibition at 1000 nM [1, 31]: no inhibitory activity | inhibition at 1 µM [1, 31]: 1% | IC50 [2]: > 80 µM | IC50 [3]: > 80 µM | IC50 [4]: > 80 µM | IC50 [5]: > 80 µM | melting point: 247.3 to 249.2 °C | IC50 at 48 h [6]: > 80 µM

SMILES: Cc1cccc(NC(=O)Nc2ccc(Oc3ncnc4[nH]ncc34)cc2)c1C [Compound 1h, 1-(4-((1H-Pyrazolo[3,4-d]pyrimidin-4-yl)oxy)phenyl)-3-(2,3-dimethylphenyl)urea]
inhibition at 1 µM [1, 31]: 27% | IC50 [2]: > 80 µM | IC50 [3]: > 80 µM | IC50 [4]: 11.7 µM | IC50 [5]: > 80 µM | melting point: 250.4 to 252.3 °C | IC50 at 48 h [6]: > 80 µM

SMILES: Cn1ncc2c(Oc3ccc(NC(=O)Nc4ccc(Cl)c(C(F)(F)F)c4)cc3)ncnc21 [Compound 1v, 1-(4-Chloro-3-(trifluoromethyl)phenyl)-3-(4-((1-methyl-1H-pyrazolo[3,4-d]pyrimidin-4-yl)oxy)phenyl)urea]
inhibition at 0.1 µM [1, 30]: 81% | inhibition at 1 µM [1, 31]: 97% | IC50 [1]: 0.0236 µM | IC50 [2]: 12.2 µM | IC50 [3]: 14.7 µM | IC50 [4]: 23.4 µM | IC50 [5]: 12.5 µM | Inhibition % at 1 μΜ, BRAF (wt) ([8]; 1 μΜ): 105% | IC50 ([8]; in parentheses in Table 4, read-out: wild-type BRAF IC50): 0.0515 µM | Inhibition % at 1 μΜ, RAF1 (CRAF) ([9]; 1 μΜ): 102% | IC50 ([9]; in parentheses in Table 4, read-out: C-RAF IC50): 0.0085 µM | Inhibition % at 1 μΜ, ABL2 (Arg) [10]: 4% | Inhibition % at 1 μΜ, EGFR (ErbB1) [11]: 8% | Inhibition % at 1 μΜ, ErbB2 (HER2) [12]: −7% | Inhibition % at 1 μΜ, ErbB4 (HER4) [13]: 7% | Inhibition % at 1 μΜ, PTK2 (FAK) [14]: 13% | Inhibition % at 1 μΜ, FLT1 (VEGFR1) [15]: 31% | Inhibition % at 1 μΜ, MET (c-Met) [16]: 6% | Inhibition % at 1 μΜ, VEGFR-2 [17]: 56% | Inhibition % at 1 μΜ, EPHA2 [18]: 2% | Inhibition % at 1 μΜ, FLT4 (VEGFR3) [19]: 58% | Inhibition % at 1 μΜ, ABL1 [20]: 5% | Inhibition % at 1 μΜ, ALK [21]: 7% | Inhibition % at 1 μΜ, AURKA (Aurora A) [22]: 17% | Inhibition % at 1 μΜ, AURKB (Aurora B) [23]: 42% | Inhibition % at 1 μΜ, LCK [24]: 20% | Inhibition % at 1 μΜ, LTK (TYK1) [25]: 3% | Inhibition % at 1 μΜ, MST1R (RON) [26]: −2% | G0/G1 (%) ([27]; A375, 6.11 μmol/L): 42.53% | G2/M (%) ([27]; A375, 6.11 μmol/L): 10.94% | S (%) ([27]; A375, 6.11 μmol/L): 38.25% | Sub-G1 (%) ([27]; A375, 6.11 μmol/L): 4.39% | G0/G1 (%) ([27]; A375, 12.21 μmol/L): 47.94% | G2/M (%) ([27]; A375, 12.21 μmol/L): 7.39% | S (%) ([27]; A375, 12.21 μmol/L): 38.13% | Sub-G1 (%) ([27]; A375, 12.21 μmol/L): 2.12% | G0/G1 (%) ([27]; A375, 24.42 μmol/L): 52.73% | G2/M (%) ([27]; A375, 24.42 μmol/L): 5.48% | S (%) ([27]; A375, 24.42 μmol/L): 36.19% | Sub-G1 (%) ([27]; A375, 24.42 μmol/L): 5.48% | effect on cell cycle progression ([27]; A375, 48 h, G0/G1 phase): dose-dependent cell cycle arrest | phosphor-MEK levels (western blot) [28]: suppressed phosphor-MEK levels in a concentration-dependent manner | phosphor-MEK levels (western blot) [29]: suppressed phosphor-MEK levels in a concentration-dependent manner | melting point: 212.1 to 213 °C | IC50 at 48 h [7]: > 80 µM

More lines, in order of falling IC50 [2], values ahead:

inhibition at 0.1 µM [1, 30]: 37% | inhibition at 1 µM [1, 31]: 90% | IC50 [2]: 29.3 µM | IC50 [3]: > 80 µM | IC50 [4]: 19.5 µM | IC50 [5]: 19.8 µM | IC50 at 48 h [6]: 17.8 µM
SMILES: O=C(Nc1ccc(Oc2ncnc3[nH]ncc23)cc1)Nc1ccc(Cl)c(C(F)(F)F)c1 [Compound 1a, 1-(4-((1H-Pyrazolo[3,4-d]pyrimidin-4-yl)oxy)phenyl)-3-(4-chloro-3-(trifluoromet-hyl)phenyl)urea]

inhibition at 0.1 µM [1, 30]: 61% | inhibition at 1 µM [1, 31]: 93% | IC50 [1]: 0.0381 µM | IC50 [2]: 13.2 µM | IC50 [3]: > 80 µM | IC50 [4]: 68.9 µM | IC50 [5]: > 80 µM | melting point: 309.8 to 312 °C
SMILES: Cn1ncc2c(Oc3ccc(NC(=O)Nc4cccc(Cl)c4)cc3)ncnc21 [Compound 1u, 1-(3-Chlorophenyl)-3-(4-((1-methyl-1H-pyrazolo[3,4-d]pyrimidin-4-yl)oxy)phenyl)urea]
IC50 at 48 h [7]: > 80 µM
